Literature values, collected in patent US20230405017A1, “METHODS OF USING RHO KINASE INHIBITORS TO TREAT FRONTOTEMPORAL DEMENTIA” (Woolsey Pharmaceuticals, Inc., priority 2020, published 2023).

Conditions: in vivo; 1-hydroxy (M3) metabolite of fasudil

half-life: about 8 hours
Compound: O=S(=O)(c1cccc2c(O)nccc12)N1CCCNCC1 [M3]
